In US5955616A, “Pyrrolidine derivatives having phospholipase A2 inhibitory activity” (Shionogi & Co., Ltd., priority 1995, dated 1999):
pIC50: −log10 of the molar value.

Tests used:
[1] = molecular target: T1, cPLA2 (Homo sapiens, UniProt P47712); experiment: cPLA2 Inhibitory activity (release of radiolabelled fatty acid from liposomes); type: biochemical; conditions: 50 mM HEPES pH 7.4, 1 mM CaCl2, 2.5 μM radio-labeled phosphatidylcholine, 15 min at 37° C; read-out: cPLA2 Inhibition Activity IC50
T1 sequence (P47712 1-749): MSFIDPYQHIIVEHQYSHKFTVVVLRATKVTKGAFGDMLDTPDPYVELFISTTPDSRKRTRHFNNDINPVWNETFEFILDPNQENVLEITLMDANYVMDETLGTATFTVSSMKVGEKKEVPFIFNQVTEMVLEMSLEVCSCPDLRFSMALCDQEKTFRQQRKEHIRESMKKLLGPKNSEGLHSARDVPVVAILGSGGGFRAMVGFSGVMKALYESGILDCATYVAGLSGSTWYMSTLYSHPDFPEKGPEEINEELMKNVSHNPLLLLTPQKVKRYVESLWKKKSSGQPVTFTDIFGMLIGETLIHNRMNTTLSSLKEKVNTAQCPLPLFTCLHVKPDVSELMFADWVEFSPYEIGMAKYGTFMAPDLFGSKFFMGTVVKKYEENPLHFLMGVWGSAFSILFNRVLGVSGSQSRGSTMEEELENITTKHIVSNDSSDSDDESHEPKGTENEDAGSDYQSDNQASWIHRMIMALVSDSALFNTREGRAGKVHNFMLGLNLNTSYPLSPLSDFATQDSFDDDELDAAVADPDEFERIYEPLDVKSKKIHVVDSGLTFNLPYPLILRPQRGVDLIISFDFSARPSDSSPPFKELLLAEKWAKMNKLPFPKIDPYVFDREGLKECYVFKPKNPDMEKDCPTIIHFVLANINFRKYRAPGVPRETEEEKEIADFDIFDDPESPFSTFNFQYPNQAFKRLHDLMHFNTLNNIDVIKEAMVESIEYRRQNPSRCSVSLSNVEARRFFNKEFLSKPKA
Procedure, shortened: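 Enzyme (4 ng) reacted 15 min at 37 °C with sonicated liposomes bearing 2.5 μM 14C-arachidonoyl PC (2:1 with dioleoylglycerol) in pH 7.4 HEPES containing Ca2+, DTT, NaCl and BSA. Test compound at 250, 50, 10, 2 and 0.4 μM. IC50 derived from scintillation-counted fatty acid release versus no-compound control.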

[2] = system: Prostaglandin E2 production in human fibroblasts; experiment: Inhibition of Production of Prostaglandin E2 in Human Fibroblasts (IL-1 stimulated); type: cell-based; conditions: Fibroblast, stimulation with IL-1, read-out: Inhibitory activity Against the Production of Prostaglandin E2 in Human Fibroblasts IC50
Description: Experiment 2 Inhibition of Production of Prostaglandin E2 in Human Fibroblasts
From this viewpoint, the compounds of the present invention were tested for the effect on the production of prostaglandin E2 by human fibroblasts under the stimulation with IL-1 according to the method of J. M. Dayer et al (CACHECTIN/TUMOR NECROSIS FACTOR STIMULATES COLLAGENASE AND PROSTAGLANDIN E2 PRODUCTION BY HUMAN SYNOVIAL CELLS AND DERMAL FIBROBLASTS; J. M. Dayer, B. Beutlerm and A. Cerami, J. Exp. Med., 162,2163-2168, 1985).

Row | pIC50 [1] | SMILES | pIC50 [2]
1 | 4.66 | CS[C@H]1C[C@@H](C(=O)Nc2ccc(C(CO)=C3SC(=O)NC3=O)cc2)N(S(=O)(=O)c2ccc(-c3ccccc3)cc2)C1 [Compound D-1] | 5.44
2 | 5.15 | O=C1NC(=O)C(=C(CO)c2ccc(NC(=O)[C@@H]3C[C@H](SCc4ccccc4)CN3S(=O)(=O)c3ccc(-c4ccccc4)cc3)cc2)S1 [Compound D-2] | 5.24
3 | 6.34 | O=C1NC(=O)/C(=C/c2ccc(C=CC[C@@H]3C[C@H](SC(c4ccccc4)(c4ccccc4)c4ccccc4)CN3C(=O)CCc3ccccc3)cc2)S1 [Compound E-2] | 5.22
4 | 5.43 | O=C1NC(=O)/C(=C/c2ccc(CCC[C@@H]3C[C@H](SC(c4ccccc4)c4ccccc4)CN3C(=O)CCc3ccccc3)cc2)S1 [Compound E-4] | 5.72
5 | 5.49 | O=C1NC(=O)/C(=C/c2ccc(C(=O)NC[C@@H]3C[C@H](OCc4ccc(F)cc4F)CN3C(=O)c3ccc(Cn4sccc4=O)cc3)cc2)S1 [Compound H-8] | 5.00
6 | 5.70 | O=C1NC(=O)/C(=C/c2ccc(C(=O)NC[C@@H]3C[C@H](OCc4ccc(-c5ccccc5)cc4)CN3C(=O)c3ccc(Cn4sccc4=O)cc3)cc2)S1 [Compound H-9] | 5.02
7 | 5.00 | O=C1NC(=O)/C(=C/c2ccc(C(=O)NC[C@@H]3C[C@H](OC(c4ccccc4)c4ccccc4)CN3C(=O)c3ccc(CN4CCCC4=O)cc3)cc2)S1 [Compound H-10] | 5.62
8 | 5.37 | N#CC(=S)Nc1ccc(C(=O)N2C[C@@H](OC(c3ccccc3)c3ccccc3)C[C@H]2CNC(=O)c2ccc(/C=C3\SC(=O)NC3=O)cc2)cc1 [Compound H-11] | 5.07
9 | 5.37 | CC(=O)Oc1ccc(O)cc1CCCCCCC(=O)N1C[C@@H](OC(c2ccccc2)c2ccccc2)C[C@H]1CNC(=O)c1ccc(/C=C2\SC(=O)NC2=O)cc1 [Compound H-16] | 5.72
10 | 5.31 | O=C1C=CC(=O)C(CCCCCCC(=O)N2C[C@@H](OC(c3ccccc3)c3ccccc3)C[C@H]2CNC(=O)c2ccc(/C=C3\SC(=O)NC3=O)cc2)=C1 [Compound H-17] | 5.15
11 | 4.96 | O=C1NC(=O)/C(=C/c2ccc(C(=O)NC[C@@H]3C[C@H](OCc4ccc(F)cc4F)CN3C(=O)CCCCCCC3=CC(=O)c4ccccc4C3=O)cc2)S1 [Compound H-18] | 5.82
12 | 5.54 | O=C1NC(=O)C(=Cc2ccc(C(=O)NC[C@@H]3C[C@H](NC(=O)c4ccc(Cn5sccc5=O)cc4)CN3S(=O)(=O)c3ccc(-c4ccccc4)cc3)cc2)S1 [Compound J-2] | 5.01
